Assay results reported in patent US7790921B2 (Biolink Life Sciences, Inc., priority 2007, dated 2010).
Entries after “also recorded” stand apart in the source; their conditions may differ. Read-outs that look alike come from different tables or passages of the source.

Key:
[1] = tested on: deacetylase; settings: dose between 20 and 40 mg/kg, patients with cervical cancer; cited from earlier work
[2] = literature; cited from earlier work
[3] = tested on: HIV-infected individuals; settings: 250 mg twice daily, 10 weeks; cited from earlier work
[4] = tested on: patients with major depressive illness, bipolar disorder, or schizoaffective disorder; settings: cited from earlier work
[5] = Hygroscopicity and storage stability of the solid; type: physicochemical
[6] = Solubility in methanol; settings: product of Examples 2 and 3
[7] = Solubility in simulated intestinal fluid USP; type: physicochemical
[8] = Solubility in simulated gastric fluid USP; type: physicochemical
[9] = Solubility of lithium valproate in water / aqueous solutions
[10] = mean duration of at least 1 year of administration

2-propylpentanoic acid magnesium salt [magnesium valproate]
effect on deacetylase activity in tumor tissues [1]: inhibits deacetylase activity

CCCC(CCC)C(=O)[O-].[Na+] [Sodium valproate]
hygroscopicity [2]: hygroscopic

CCCC(CCC)C(=O)O [Valproic acid, 2-propylpentanoic acid]
safety and tolerability [3]: safe and well tolerated | solubility in water [2]: very slightly soluble | mean change in GAS ratings ([4]; bipolar and schizoaffective patients, average of 11 to 14 months of treatment): 35.0 | patients with improved mean GAS scores, bipolar disorder [4, 10]: 12 of 12 | patients with improved mean GAS scores, depressed patients [4, 10]: 7 of 9 | patients with improved mean GAS scores, schizoaffective states [4, 10]: 11 of 14

CCCC(CCC)C(=O)O [divalproex sodium]
hygroscopicity [2]: not hygroscopic

CCCC(CCC)C(=O)[O-].[Li+] [lithium valproate]
hygroscopicity [5]: not hygroscopic or deliquescent; also recorded: non-hygroscopic | stability during storage [5]: stable during storage | solubility in methanol [6]: very soluble | solubility in simulated intestinal fluid USP [7]: soluble | solubility in simulated gastric fluid USP [8]: soluble | solubility of lithium valproate in water ([9]; portions added to 1 mL water until undissolved): about 250 mg of lithium valproate per mL of water | solubility in water ([9]; product of Examples 2 and 3): very soluble | pH of aqueous solutions ([9]; water or aqueous solutions): near neutral pH
